Assay results as given in patent US7888332B2, “Hydrazide-containing CFTR inhibitor compounds and uses thereof” (The Regents of the University of California, priority 2004, dated 2011).

Legend:
[1] = target: T1, CFTR (cAMP-stimulated short-circuit current) in mouse ileum (Mus musculus, UniProt P26361); assay: Short-circuit current in intact mouse ileum
T1 construct: from tissue; host or cells: isolated mouse ileal segments in a micro-Ussing chamber
Protocol: The efficacy of GlyH-101 in inhibiting cAMP/cholera toxin-induced intestinal fluid secretion was also evaluated. Short-circuit current experiments were done in different cell types and in intact mouse ileum under non-permeabilized conditions and in the absence of a Cl^− gradient. In each case CFTR was activated by CPT-cAMP after ENaC inhibition by amiloride. […] Inhibition was ˜100% at higher GlyH-101 concentrations. Cholera toxin-induced intestinal fluid secretion was measured in an in vivo closed-loop model in which loops for each mouse were injected with saline (control), cholera toxin (1 μg), or cholera toxin (1 μg)+GlyH-101 (0.25 μg). GlyH-101 was added to the lumen (rather than systemically) based on initial studies showing poor intestinal absorption and little effect of systemically administered compound. Compared to the saline control, the cholera toxin-induced increase in fluid secretion over 4 hours, quantified from loop weight-to-length ratio, was 80% reduced by GlyH-101.

CFTR = CFTR (Homo sapiens, UniProt P13569); assay: Cell-based YFP fluorescence assay of iodide influx after CFTR activation (screening); set-up: expressed in transfected cells; host or cells: Fisher Rat Thyroid (FRT) cells, stably transfected
Protocol: Screening was performed using an integrated system (Beckman) consisting of a 3-meter robotic arm, CO2 incubator, plate washer, liquid handling work station, barcode reader, delidding station, plate sealer and two fluorescence plate readers (Optima, BMG Lab Technologies), each equipped with two syringe pumps and HQ500/20X (500±10 nm) excitation and HQ535/30M (535±15 nm) emission filters (Chroma).
One hundred thousand small molecules (most 350-550 daltons) were selected for screening from commercial sources (ChemBridge and ChemDiv, both of San Diego, Calif.) using algorithms designed to maximize chemical diversity and drug-like properties. The compounds were obtained as a dried powder and solutions were made in DMSO just before testing, stored frozen as 2.5 mM stock solutions for further use.
For screening, cells in 96-well plates were washed three times and then CFTR halide conductance was activated by incubation for 15 minutes with an activating cocktail containing 10 μM forskolin, 20 μM apigenin and 100 μM isobutylmethyl-xanthine (IBMX). Test compounds (final 25 μM) were added 5 minutes prior to assay of iodide influx in which cells were exposed to a 100 mM inwardly-directed iodide gradient. YFP fluorescence was recorded for 2 seconds prior to and 12 seconds after creation of the iodide gradient. Initial rates of iodide influx were computed from the time course of decreasing fluorescence after the iodide gradient (Yang et al., J. Biol. Chem., 35079-35085, 2003).
A collection of 100,000 small, drug-like compounds was screened to identify new CFTR inhibitors. As diagrammed in FIG. 1A, compounds were screened at 25 μM in a cell-based assay of iodide influx after CFTR activation by an agonist mixture containing forskolin, IBMX and apigenin. Initial rates of iodide influx were computed from the kinetics of fluorescence decrease following chloride replacement by iodide. Four compounds (FIG. 1B) reducing iodide influx by greater than 50% were identified, which were not related structurally to known CFTR activators or inhibitors.

[2] = after GlyH-101 addition (10 μM)

Chain of CFTR (P13569 whole entry): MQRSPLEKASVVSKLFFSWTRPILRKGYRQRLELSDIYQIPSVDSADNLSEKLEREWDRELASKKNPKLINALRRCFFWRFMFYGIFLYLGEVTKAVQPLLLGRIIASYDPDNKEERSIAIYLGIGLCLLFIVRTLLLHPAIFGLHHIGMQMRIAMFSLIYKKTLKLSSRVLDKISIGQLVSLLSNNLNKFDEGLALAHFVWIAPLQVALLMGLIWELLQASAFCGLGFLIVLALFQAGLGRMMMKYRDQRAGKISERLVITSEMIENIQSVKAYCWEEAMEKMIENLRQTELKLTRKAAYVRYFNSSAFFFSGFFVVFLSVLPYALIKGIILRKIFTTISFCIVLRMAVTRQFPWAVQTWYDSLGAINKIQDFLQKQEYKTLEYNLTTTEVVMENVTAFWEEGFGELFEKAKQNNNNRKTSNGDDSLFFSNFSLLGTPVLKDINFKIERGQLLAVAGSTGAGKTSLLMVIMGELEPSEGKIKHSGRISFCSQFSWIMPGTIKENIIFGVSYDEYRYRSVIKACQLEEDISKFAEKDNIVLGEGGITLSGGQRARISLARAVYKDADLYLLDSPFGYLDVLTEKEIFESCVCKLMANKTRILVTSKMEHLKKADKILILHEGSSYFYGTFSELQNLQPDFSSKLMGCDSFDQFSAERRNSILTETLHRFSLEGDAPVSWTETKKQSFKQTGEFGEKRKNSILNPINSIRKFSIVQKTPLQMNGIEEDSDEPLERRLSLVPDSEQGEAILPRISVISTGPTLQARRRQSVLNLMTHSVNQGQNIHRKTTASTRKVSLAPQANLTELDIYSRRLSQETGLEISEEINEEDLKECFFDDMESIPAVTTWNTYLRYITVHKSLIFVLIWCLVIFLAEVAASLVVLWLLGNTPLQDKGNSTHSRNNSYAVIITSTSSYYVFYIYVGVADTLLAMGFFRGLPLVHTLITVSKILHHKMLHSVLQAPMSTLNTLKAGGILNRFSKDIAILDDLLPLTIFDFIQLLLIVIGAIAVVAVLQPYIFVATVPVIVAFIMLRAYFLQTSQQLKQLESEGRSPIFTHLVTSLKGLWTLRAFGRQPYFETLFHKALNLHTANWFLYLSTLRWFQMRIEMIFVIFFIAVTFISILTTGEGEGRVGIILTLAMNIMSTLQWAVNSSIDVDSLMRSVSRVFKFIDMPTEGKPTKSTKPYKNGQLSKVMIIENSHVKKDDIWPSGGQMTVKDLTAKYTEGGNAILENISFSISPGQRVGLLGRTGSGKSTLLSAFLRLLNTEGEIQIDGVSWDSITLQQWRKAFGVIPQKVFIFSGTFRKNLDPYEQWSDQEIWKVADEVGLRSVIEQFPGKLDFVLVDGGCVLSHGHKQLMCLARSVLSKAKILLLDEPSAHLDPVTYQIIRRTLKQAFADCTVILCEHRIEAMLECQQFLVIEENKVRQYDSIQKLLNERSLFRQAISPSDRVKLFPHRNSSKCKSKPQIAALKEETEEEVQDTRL
T1 sequence (P26361 whole entry): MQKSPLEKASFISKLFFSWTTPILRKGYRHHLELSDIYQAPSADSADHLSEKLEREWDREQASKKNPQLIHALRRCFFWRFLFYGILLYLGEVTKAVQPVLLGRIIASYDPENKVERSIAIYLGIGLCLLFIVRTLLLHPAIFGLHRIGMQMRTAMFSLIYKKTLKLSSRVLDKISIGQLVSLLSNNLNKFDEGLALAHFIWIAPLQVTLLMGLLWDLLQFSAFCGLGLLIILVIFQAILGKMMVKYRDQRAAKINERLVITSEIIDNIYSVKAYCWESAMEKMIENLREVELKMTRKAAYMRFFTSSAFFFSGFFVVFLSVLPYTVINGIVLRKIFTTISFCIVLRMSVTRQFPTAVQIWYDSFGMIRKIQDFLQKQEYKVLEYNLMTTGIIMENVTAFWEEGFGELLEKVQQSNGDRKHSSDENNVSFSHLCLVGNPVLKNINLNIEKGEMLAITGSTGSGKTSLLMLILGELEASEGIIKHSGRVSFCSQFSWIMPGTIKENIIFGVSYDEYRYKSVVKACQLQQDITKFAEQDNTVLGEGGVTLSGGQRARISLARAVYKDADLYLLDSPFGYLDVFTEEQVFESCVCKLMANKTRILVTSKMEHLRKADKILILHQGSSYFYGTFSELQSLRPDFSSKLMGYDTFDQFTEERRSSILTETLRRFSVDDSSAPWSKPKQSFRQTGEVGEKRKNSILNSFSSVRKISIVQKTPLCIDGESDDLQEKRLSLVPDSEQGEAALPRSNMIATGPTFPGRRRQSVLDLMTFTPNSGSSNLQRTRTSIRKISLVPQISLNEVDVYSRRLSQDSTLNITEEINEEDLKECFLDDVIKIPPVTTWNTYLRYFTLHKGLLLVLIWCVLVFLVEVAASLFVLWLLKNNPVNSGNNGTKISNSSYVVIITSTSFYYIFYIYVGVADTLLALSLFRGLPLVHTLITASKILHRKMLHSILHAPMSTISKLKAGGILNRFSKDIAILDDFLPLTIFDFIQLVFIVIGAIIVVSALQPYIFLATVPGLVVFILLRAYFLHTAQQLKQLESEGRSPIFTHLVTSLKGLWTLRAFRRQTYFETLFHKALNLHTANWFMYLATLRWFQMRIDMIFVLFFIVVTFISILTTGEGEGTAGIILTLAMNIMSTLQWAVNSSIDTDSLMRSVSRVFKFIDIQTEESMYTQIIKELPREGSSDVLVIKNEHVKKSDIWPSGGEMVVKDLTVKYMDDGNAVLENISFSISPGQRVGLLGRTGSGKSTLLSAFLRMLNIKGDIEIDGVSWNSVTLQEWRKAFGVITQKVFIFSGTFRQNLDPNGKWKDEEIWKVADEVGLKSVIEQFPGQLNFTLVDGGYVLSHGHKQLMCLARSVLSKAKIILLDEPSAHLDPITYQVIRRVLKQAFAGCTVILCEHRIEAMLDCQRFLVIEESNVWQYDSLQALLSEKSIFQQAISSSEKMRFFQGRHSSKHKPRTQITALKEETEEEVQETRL

O=C(CNc1ccc2ccccc2c1)NN=Cc1cc(Br)c(O)c(Br)c1O [GlyH-101, N-2-napthalenyl-[(3,5-dibromo-2,4-dihydroxyphenyl)methylene]glycine hydrazide]
Inhibition at higher concentrations [1]: ~100% | Ki ([1]; CPT-cAMP after amiloride, read-out: Ki for inhibition of cAMP-stimulated short-circuit current): ~5 µM | CFTR inhibition after activation by different types of agonists (CFTR; 50 μM GlyH-101, agonists 50 μM incl. CFTRact-01, 08, 10): effective CFTR inhibition | time of further inhibition (CFTR; [2]): ~1 min | time within which 50% of the inhibition occurred (CFTR; [2]): ≤ 1 s | reversal of inhibition after washout (CFTR; washout): complete reversal | reversal of inhibition over 5 minutes after washout (CFTR; washout, 5 minutes): > 75%
